Experiments:
[1] = tested on: Gardnerella vaginalis ATCC 14019; assay: Inhibition of bacteria growth, drug dilution tubes, anaerobic; assay type: cell-based; parameters: key to growth: (+) for growth; (−) for no growth; (±) for suboptimal growth after an initial observation of growth
Experimental: (§1) Serial dilutions of tinidazole and terconazole were prepared by adding measured amounts of each substance to water (both individually and in combination). Seven bacterial organisms that are common pathogens in bacterial vaginosis were grown anaerobically in the medium as listed in Table 4 under a N2/H2/CO2 (85:5:10) head space atmosphere. [table] These cultures were diluted to a 0.5 McFarland standard prior to inoculation of drug dilution tubes. One (1) mL of the 0.5 McFarland preparation was inoculated to an anaerobically prepared test tube containing 0.8 mL of Difco anaerobic medium (DAMM) and 0.2 mL of appropriate diluted antimicrobial or antimicrobial combination for a total of 2 mL. The inoculated tubes were then incubated at 37° C. and monitored daily for growth. Growth was scored with a (+) for growth, (−) for no growth, and (±) for suboptimal growth after an initial observation of growth. Tinidazole is abbreviated as TNZ and terconazole is abbreviated as TER in Tables 5 through 11.

[2] = tested on: Mobiluncus mulieris ATCC 35243; assay: as above; assay type: cell-based; parameters: key to growth: (+) for growth; (−) for no growth; (±) for suboptimal growth after an initial observation of growth
Experimental: as §1

[3] = neutral pH; cited from earlier work
[4] = tested on: Gardnerella vaginalis ATCC 14018; assay: Inhibition of bacteria growth, drug dilution tubes, anaerobic; assay type: cell-based; parameters: key: (+) for growth; (−) for no growth; (±) for suboptimal growth after an initial observation of growth

**Q.** Which results are given for `CCS(=O)(=O)CCn1c([N+](=O)[O-])cnc1C` [TNZ, 1-[2-(ethylsulfonyl)ethyl]-2-methyl-5-nitroimidazole]?
**A.** growth ([1]; TNZ 2 μg/ml, DAY 1): (+); growth ([1]; TNZ 2 μg/ml, DAY 2): (+); growth ([1]; TNZ 2 μg/ml, DAY 3): (+); growth ([1]; TNZ 2 μg/ml, DAY 4): (+); growth ([1]; TNZ 2 μg/ml, DAY 5): (+); growth ([1]; TNZ 3.9 μg/ml, DAY 1): (+); growth ([1]; TNZ 3.9 μg/ml, DAY 2): (+); growth ([1]; TNZ 3.9 μg/ml, DAY 3): (+); growth ([1]; TNZ 3.9 μg/ml, DAY 4): (+); growth ([1]; TNZ 3.9 μg/ml, DAY 5): (+); growth ([1]; TNZ 7.8 μg/ml, DAY 1): (+); growth ([1]; TNZ 7.8 μg/ml, DAY 2): (+); growth ([1]; TNZ 7.8 μg/ml, DAY 3): (+); growth ([1]; TNZ 7.8 μg/ml, DAY 4): (+); growth ([1]; TNZ 7.8 μg/ml, DAY 5): (+); growth ([1]; TNZ 15.6 μg/ml, DAY 1): (+); growth ([1]; TNZ 15.6 μg/ml, DAY 2): (+); growth ([1]; TNZ 15.6 μg/ml, DAY 3): (+); growth ([1]; TNZ 15.6 μg/ml, DAY 4): (+); growth ([1]; TNZ 15.6 μg/ml, DAY 5): (+); growth ([1]; TNZ 31.3 μg/ml, DAY 1): (+); growth ([1]; TNZ 31.3 μg/ml, DAY 2): (+); growth ([1]; TNZ 31.3 μg/ml, DAY 3): (+); growth ([1]; TNZ 31.3 μg/ml, DAY 4): (+); growth ([1]; TNZ 31.3 μg/ml, DAY 5): (+); growth ([1]; TNZ 62.5 μg/ml, DAY 1): (+); growth ([1]; TNZ 62.5 μg/ml, DAY 2): (+); growth ([1]; TNZ 62.5 μg/ml, DAY 3): (+); growth ([1]; TNZ 62.5 μg/ml, DAY 4): (+); growth ([1]; TNZ 62.5 μg/ml, DAY 5): (+); growth ([1]; TNZ 125 μg/ml, DAY 1): (+); growth ([1]; TNZ 125 μg/ml, DAY 2): (+); growth ([1]; TNZ 125 μg/ml, DAY 3): (+); growth ([1]; TNZ 125 μg/ml, DAY 4): (+); growth ([1]; TNZ 125 μg/ml, DAY 5): (+); growth ([1]; TNZ 250 μg/ml, DAY 1): (+); growth ([1]; TNZ 250 μg/ml, DAY 2): (+); growth ([1]; TNZ 250 μg/ml, DAY 3): (+); growth ([1]; TNZ 250 μg/ml, DAY 4): (+); growth ([1]; TNZ 250 μg/ml, DAY 5): (+); growth ([1]; TNZ 500 μg/ml, DAY 1): (+); growth ([1]; TNZ 500 μg/ml, DAY 2): (+); growth ([1]; TNZ 500 μg/ml, DAY 3): (+); growth ([1]; TNZ 500 μg/ml, DAY 4): (+); growth ([1]; TNZ 500 μg/ml, DAY 5): (+); growth ([2]; TNZ 2 μg/ml, DAY 1): (+); growth ([2]; TNZ 2 μg/ml, DAY 2): (+); growth ([2]; TNZ 2 μg/ml, DAY 3): (+); growth ([2]; TNZ 2 μg/ml, DAY 4): (+); growth ([2]; TNZ 2 μg/ml, DAY 5): (+); growth ([2]; TNZ 3.9 μg/ml, DAY 1): (+); growth ([2]; TNZ 3.9 μg/ml, DAY 2): (+); growth ([2]; TNZ 3.9 μg/ml, DAY 3): (+); growth ([2]; TNZ 3.9 μg/ml, DAY 4): (+); growth ([2]; TNZ 3.9 μg/ml, DAY 5): (+); growth ([2]; TNZ 7.8 μg/ml, DAY 1): (+); growth ([2]; TNZ 7.8 μg/ml, DAY 2): (+); growth ([2]; TNZ 7.8 μg/ml, DAY 3): (+); growth ([2]; TNZ 7.8 μg/ml, DAY 4): (+); growth ([2]; TNZ 7.8 μg/ml, DAY 5): (+); growth ([2]; TNZ 15.6 μg/ml, DAY 1): (−); growth ([2]; TNZ 15.6 μg/ml, DAY 2): (−); growth ([2]; TNZ 15.6 μg/ml, DAY 3): (−); growth ([2]; TNZ 15.6 μg/ml, DAY 4): (+); growth ([2]; TNZ 15.6 μg/ml, DAY 5): (+); growth ([2]; TNZ 31.3 μg/ml, DAY 1): (−); growth ([2]; TNZ 31.3 μg/ml, DAY 2): (−); growth ([2]; TNZ 31.3 μg/ml, DAY 3): (−); growth ([2]; TNZ 31.3 μg/ml, DAY 4): (+); growth ([2]; TNZ 31.3 μg/ml, DAY 5): (+); growth ([2]; TNZ 62.5 μg/ml, DAY 1): (−); growth ([2]; TNZ 62.5 μg/ml, DAY 2): (−); growth ([2]; TNZ 62.5 μg/ml, DAY 3): (−); growth ([2]; TNZ 62.5 μg/ml, DAY 4): (−); growth ([2]; TNZ 62.5 μg/ml, DAY 5): (−); growth ([2]; TNZ 125 μg/ml, DAY 1): (−); growth ([2]; TNZ 125 μg/ml, DAY 2): (−); growth ([2]; TNZ 125 μg/ml, DAY 3): (−); growth ([2]; TNZ 125 μg/ml, DAY 4): (−); growth ([2]; TNZ 125 μg/ml, DAY 5): (−); growth ([2]; TNZ 250 μg/ml, DAY 1): (−); growth ([2]; TNZ 250 μg/ml, DAY 2): (−); growth ([2]; TNZ 250 μg/ml, DAY 3): (−); growth ([2]; TNZ 250 μg/ml, DAY 4): (−); growth ([2]; TNZ 250 μg/ml, DAY 5): (−); growth ([2]; TNZ 500 μg/ml, DAY 1): (−); growth ([2]; TNZ 500 μg/ml, DAY 2): (−); growth ([2]; TNZ 500 μg/ml, DAY 3): (−); growth ([2]; TNZ 500 μg/ml, DAY 4): (−); growth ([2]; TNZ 500 μg/ml, DAY 5): (−); solubility in water [3]: about 0.45 percent by weight; growth ([4]; TNZ 2 μg/ml, DAY 1): (+); growth ([4]; TNZ 2 μg/ml, DAY 2): (+); growth ([4]; TNZ 2 μg/ml, DAY 3): (+); growth ([4]; TNZ 2 μg/ml, DAY 4): (+); growth ([4]; TNZ 2 μg/ml, DAY 5): (+); growth ([4]; TNZ 3.9 μg/ml, DAY 1): (+); growth ([4]; TNZ 3.9 μg/ml, DAY 2): (+); growth ([4]; TNZ 3.9 μg/ml, DAY 3): (+); growth ([4]; TNZ 3.9 μg/ml, DAY 4): (+); growth ([4]; TNZ 3.9 μg/ml, DAY 5): (+); growth ([4]; TNZ 7.8 μg/ml, DAY 1): (−); growth ([4]; TNZ 7.8 μg/ml, DAY 2): (+); growth ([4]; TNZ 7.8 μg/ml, DAY 3): (+); growth ([4]; TNZ 7.8 μg/ml, DAY 4): (+); growth ([4]; TNZ 7.8 μg/ml, DAY 5): (+); growth ([4]; TNZ 15.6 μg/ml, DAY 1): (−); growth ([4]; TNZ 15.6 μg/ml, DAY 2): (+); growth ([4]; TNZ 15.6 μg/ml, DAY 3): (+); growth ([4]; TNZ 15.6 μg/ml, DAY 4): (+); growth ([4]; TNZ 15.6 μg/ml, DAY 5): (+); growth ([4]; TNZ 31.3 μg/ml, DAY 1): (−); growth ([4]; TNZ 31.3 μg/ml, DAY 2): (−); growth ([4]; TNZ 31.3 μg/ml, DAY 3): (−); growth ([4]; TNZ 31.3 μg/ml, DAY 4): (−); growth ([4]; TNZ 31.3 μg/ml, DAY 5): (−); growth ([4]; TNZ 62.5 μg/ml, DAY 1): (−); growth ([4]; TNZ 62.5 μg/ml, DAY 2): (−); growth ([4]; TNZ 62.5 μg/ml, DAY 3): (−); growth ([4]; TNZ 62.5 μg/ml, DAY 4): (−); growth ([4]; TNZ 62.5 μg/ml, DAY 5): (−); growth ([4]; TNZ 125 μg/ml, DAY 1): (−); growth ([4]; TNZ 125 μg/ml, DAY 2): (−); growth ([4]; TNZ 125 μg/ml, DAY 3): (−); growth ([4]; TNZ 125 μg/ml, DAY 4): (−); growth ([4]; TNZ 125 μg/ml, DAY 5): (−); growth ([4]; TNZ 250 μg/ml, DAY 1): (−); growth ([4]; TNZ 250 μg/ml, DAY 2): (−); growth ([4]; TNZ 250 μg/ml, DAY 3): (−); growth ([4]; TNZ 250 μg/ml, DAY 4): (−); growth ([4]; TNZ 250 μg/ml, DAY 5): (−); growth ([4]; TNZ 500 μg/ml, DAY 1): (−); growth ([4]; TNZ 500 μg/ml, DAY 2): (−); growth ([4]; TNZ 500 μg/ml, DAY 3): (−); growth ([4]; TNZ 500 μg/ml, DAY 4): (−); growth ([4]; TNZ 500 μg/ml, DAY 5): (−)
